Common to all, as to format: functional
For test [1], the system named is Tetranychus urticae. The experiment in a line: Acaricidal activity against Tetranychus urticae (two-spotted spider mite) assessed as mite mortality at 500 ppm relative to untreated control.
Test [2] deals with Tetranychus urticae. The experiment in a line: Acaricidal activity against Tetranychus urticae (two-spotted spider mite) assessed as mite mortality at 12.5 ppm relative to untreated control.
For test [3], the system named is Tetranychus urticae. The experiment in a line: Acaricidal activity against Tetranychus urticae (two-spotted spider mite) assessed as mite mortality at 200 ppm relative to untreated control.
Test [4] deals with Tetranychus urticae. The experiment in a line: Acaricidal activity against Tetranychus urticae (two-spotted spider mite) assessed as mite mortality at 50 ppm relative to untreated control.
For test [5], the system named is Tetranychus urticae. The experiment in a line: Acaricidal activity against Tetranychus urticae (two-spotted spider mite) assessed as mite mortality at 3.13 ppm relative to untreated control.

For the molecule `CC(C)(C)C(Br)C(=O)Nc1nnc(C(F)(F)C(F)(F)C(F)(F)C(F)(F)F)s1` (stereo not given), the mortality at 500 ppm with Tetranychus urticae [1] stood at 0%.
With `CC(C)(C)C(Cl)C(=O)Nc1nnc(C(F)(F)F)s1` (stereo not given), the mortality at 12.5 ppm in the test on Tetranychus urticae [2] was found to be 30%. Moreover, the mortality at 200 ppm with Tetranychus urticae [3] was 100%. Also, the mortality at 500 ppm with Tetranychus urticae [1] turned out to be 100%. Besides, the mortality at 50 ppm in the test with Tetranychus urticae [4] came out at 100%.
In the case of `CC(C)(C)C(Br)C(=O)Nc1nnc(C(F)(F)C(F)(F)F)s1` (stereo not given), the mortality at 12.5 ppm in the test with Tetranychus urticae [2] came to 30%. The mortality at 200 ppm in the test on Tetranychus urticae [3] came out at 80%. Also, the mortality at 500 ppm in the test on Tetranychus urticae [1] worked out at 100%. The mortality at 50 ppm in the test on Tetranychus urticae [4] was determined as 80%.
`CCC(C)C(Br)C(=O)Nc1nnc(C(F)(F)F)s1` (stereo not given): the mortality at 12.5 ppm in the test with Tetranychus urticae [2] was 30%. Besides, the mortality at 200 ppm in the test with Tetranychus urticae [3] stood at 100%. Further, the mortality at 500 ppm in the test with Tetranychus urticae [1] was determined as 100%. Further, the mortality at 50 ppm in the test on Tetranychus urticae [4] is 80%.
For the molecule `CC(C)(C)C(Br)C(=O)Nc1nnc(C(F)(F)F)s1` (stereo not given), in the test with Tetranychus urticae [2], the mortality at 12.5 ppm is 30%. For the same molecule, the mortality at 200 ppm with Tetranychus urticae [3] was 100%. For the same molecule, in the test with Tetranychus urticae [1], the mortality at 500 ppm is 100%. Further, the mortality at 50 ppm with Tetranychus urticae [4] amounted to 100%.
Regarding `CCC(Br)C(=O)Nc1nnc(C(F)(F)F)s1` (stereo not given), the mortality at 500 ppm in the test with Tetranychus urticae [1] is 0%.
Regarding `CC(CC(Br)C(=O)Nc1nnc(C(F)(F)F)s1)C1CCCCC1` (stereo not given), the mortality at 200 ppm in the test on Tetranychus urticae [3] turned out to be 0%. In addition, the mortality at 500 ppm in the test on Tetranychus urticae [1] came out at 30%.
With `CC(C)(C)C(Br)(Br)C(=O)Nc1nnc(C(F)(F)C(F)(F)C(F)(F)F)s1`, the mortality at 12.5 ppm in the test with Tetranychus urticae [2] came to 0%. Besides, the mortality at 200 ppm in the test on Tetranychus urticae [3] came to 100%. In the test with Tetranychus urticae [1], the mortality at 500 ppm was determined as 100%. The mortality at 50 ppm with Tetranychus urticae [4] came to 80%.
On to `CCCC(Br)C(=O)Nc1nnc(C(F)(F)F)s1` (stereo not given), for which, in the test on Tetranychus urticae [3], the mortality at 200 ppm was 0%. In addition, the mortality at 500 ppm with Tetranychus urticae [1] is 30%.
Take `CC(C)(C)C(Br)(Br)C(=O)Nc1nnc(C(F)(F)C(F)(F)C(F)(F)C(F)(F)F)s1`: the mortality at 12.5 ppm in the test on Tetranychus urticae [2] is 30%. For the same molecule, the mortality at 200 ppm with Tetranychus urticae [3] came to 100%. For the same molecule, the mortality at 500 ppm with Tetranychus urticae [1] came to 100%. Besides, in the test with Tetranychus urticae [4], the mortality at 50 ppm is 100%.
In the case of `CC(C)(C)CC(=O)Nc1nnc(C(F)(F)F)s1`, in the test on Tetranychus urticae [1], the mortality at 500 ppm amounted to 0%.
Consider `CC(C)(C)C(Br)C(=O)Nc1nnc(C(F)(F)C(F)(F)C(F)(F)F)s1` (stereo not given), for which the mortality at 12.5 ppm with Tetranychus urticae [2] is 30%. In addition, in the test on Tetranychus urticae [3], the mortality at 200 ppm stood at 30%. For the same molecule, in the test with Tetranychus urticae [1], the mortality at 500 ppm was 80%. Moreover, in the test on Tetranychus urticae [4], the mortality at 50 ppm is 30%.
Turning to `CCCCC(Br)C(=O)Nc1nnc(C(F)(F)F)s1` (stereo not given), the mortality at 500 ppm in the test on Tetranychus urticae [1] was 0%.
On the same count and under the same terms, then `CC(C)(C)C(Br)C(=O)Nc1nnc(C(F)(F)C(F)(F)C(F)(F)C(F)(F)C(F)(F)F)s1` (stereo not given), with 0%.
Consider `CCCCCC(Br)C(=O)Nc1nnc(C(F)(F)F)s1` (stereo not given), for which the mortality at 12.5 ppm in the test with Tetranychus urticae [2] worked out at 0%. In addition, the mortality at 200 ppm with Tetranychus urticae [3] was 80%. Further, in the test on Tetranychus urticae [1], the mortality at 500 ppm worked out at 80%. In addition, the mortality at 50 ppm in the test on Tetranychus urticae [4] is 30%.
As to `CC(C)C(Br)C(=O)Nc1nnc(C(F)(F)F)s1` (stereo not given), in the test with Tetranychus urticae [3], the mortality at 200 ppm was 30%. The mortality at 500 ppm in the test with Tetranychus urticae [1] is 100%.
`Cc1nnc(NC(=O)C(Br)C(C)(C)C)s1` (stereo not given): in the test with Tetranychus urticae [1], the mortality at 500 ppm is 0%.
Regarding `CCc1nnc(NC(=O)C(Br)C(C)(C)C)s1` (stereo not given), in the test on Tetranychus urticae [1], the mortality at 500 ppm stood at 0%.
As for `CC(Br)C(=O)Nc1nnc(C(F)(F)F)s1` (stereo not given), in the test with Tetranychus urticae [1], the mortality at 500 ppm was found to be 0%.
In the case of `CC(C)CC(Br)C(=O)Nc1nnc(C(F)(F)F)s1` (stereo not given), the mortality at 500 ppm with Tetranychus urticae [1] turned out to be 0%.
Consider `CC(C)(C)C(Br)C(=O)Nc1nncs1` (stereo not given), for which, in the test with Tetranychus urticae [1], the mortality at 500 ppm came to 0%.
In the case of `CC(C)(C)C(Br)(Br)C(=O)Nc1nnc(C(F)(F)F)s1`, the mortality at 12.5 ppm in the test with Tetranychus urticae [2] came out at 30%. Besides, in the test on Tetranychus urticae [3], the mortality at 200 ppm came to 100%. Further, the mortality at 500 ppm in the test on Tetranychus urticae [1] came out at 100%. Moreover, the mortality at 50 ppm in the test with Tetranychus urticae [4] worked out at 100%.
With `O=C(Nc1nnc(C(F)(F)F)s1)C(Br)C1CCCC1` (stereo not given), in the test with Tetranychus urticae [3], the mortality at 200 ppm was found to be 0%. The mortality at 500 ppm with Tetranychus urticae [1] was 30%.
As for `CC(C)(C)C(Br)(Br)C(=O)Nc1nnc(C(F)(F)C(F)(F)F)s1`, in the test on Tetranychus urticae [5], the mortality at 3.13 ppm came to 30%. In addition, the mortality at 12.5 ppm with Tetranychus urticae [2] turned out to be 80%. Besides, in the test with Tetranychus urticae [3], the mortality at 200 ppm amounted to 100%. The mortality at 500 ppm in the test with Tetranychus urticae [1] stood at 100%. Besides, the mortality at 50 ppm with Tetranychus urticae [4] stood at 100%.
With `O=C(CBr)Nc1nnc(C(F)(F)F)s1`, the mortality at 500 ppm with Tetranychus urticae [1] is 0%.

The values above are taken from ChEMBL document CHEMBL3045534, “Synthesis and Acaricidal Activity of N-(1,3,4-Thiadiazol-2-yl)carboxamides” (2003).
